Results reported in patent US20170223976A1, “MODIFIED MILK POWDER CONTAINING 1,5-ANHYDRO-D-GLUCITOL” (NIHON STARCH CO., LTD., priority 2015, published 2017).

How the values were obtained:
[1] = tested on: PC12 cells; assay: Determination of neurite outgrowth rate in PC12 cells (image count); assay type: cell-based; settings: NGF added section (100 ng/mL), 96 hours
Procedure: PSG-1 belongs to an immunoglobulin super family which includes some having the function of promoting neurogenesis. Then, the influence of 1,5-AG upon neuritogenesis was investigated. This was evaluated in a test system using PC12 cells which are generally used for the evaluation of neuritogenesis.
PC12 cells (Lot No. 48, Lot No. 51) (RIKEN cell bank, material 1)
DMEM medium prepared by adding 0.1% of FBS, 0.1% of HS, 1 ng/mL NGF and 1% of penicillin-streptomycin
PC12 cells were initiated in a T-75 flask by using a growth medium to be cultured in a CO2 incubator (5% CO2, 37° C., moistening). Medium exchange was carried out every 2 days, the cells were collected when 80% confluence was reached, and cells having a passage number of 2 were used in this test. Stated more specifically, after the cells were washed with D-PBS (−), the cells were separated by using 0.05% trypsin, and a growth medium was added to neutralize trypsin. Then, the supernatant was removed by centrifugation (180 g, 5 minutes), a growth medium was added to stir the cells, the number of the cells was counted by using a corpuscle calculating board, and a growth medium was used to achieve a target concentration (2.0×10^3 cells/100 μL).
(§1) A test was carried out at five concentrations (1.6, 8, 40, 200 and 1,000 μg/mL) of 1,5-AG. Stated more specifically, a 1,5-AG aqueous solution having a concentration of 100 mg/mL was diluted with water to prepare 100 times-concentrated solutions having concentrations of 0.16, 0.8, 4, 20 and 100 mg/mL. These 100 times-concentrated solutions were each added to a test medium in a ratio of 1/100 to achieve final concentrations of 1.6, 8, 40, 200 and 1,000 μg/mL and sterilized with a filter to be used in the test. As a negative control, water was added to a medium in a ratio of 1/100 and sterilized with a filter to be used in the test. As a positive control, a test medium containing a 100 ng/mL nerve growth factor (NGF) was used.
(§2) A growth medium was used to adjust the cells to a concentration of 2.0×10^3 cells/100 μL/well, and the cells were scattered in a collagen-coated 96-well plate to be cultured in a CO2 incubator (5% CO2, 37° C., moistening) for 24 hours. After culture, the medium was replaced by a sample-containing test medium (100 μL), and the cells were cultured in a CO2 incubator for 96 hours. After the end of culture, an image of the cells in each well was taken with a phase difference microscope and used for the measurement of nuetrite outgrowth rate, and nuclei and cytoplasms were fluorescent dyed by using a neurite outgrowth staining kit to measure the number of living cells and the amount of neurite outgrowth. These procedures were carried out five times each.
Based on the image taken above, the total number of cells, the number of cells showing the same or higher neurite outgrowth than the cell length and the number of cells showing neurites having a length 2 times or more than the cell length were measured from the image of the cells. The percentage (%) of cells showing neurite outgrowth was calculated from the measurement values.

[2] = tested on: PC12 cells; assay: Fluorescence determination of number of living cells and amount of neurite outgrowth (neurite outgrowth staining kit); assay type: cell-based; settings: NGF added section (100 ng/mL)
Procedure: as §1, §2
After the end of culture, the number of living cells and the amount of neurite outgrowth were determined by using a neurite outgrowth staining kit. Stated more specifically, after the medium was removed, 100 μL of a staining solution (prepared by diluting Cell Viability Indicator and Cell Membrane Stain attached to the kit with calcium magnesium-containing PBS 1,000 times) was added to each well to incubate the cells at 37° C. for 20 minutes. After incubation, the staining solution was removed, 100 μL of a background suppression solution (prepared by diluting the background suppression dye attached to the kit with calcium magnesium-containing PBS 100 times) was added to each well so as to measure fluorescence intensity with a micro plate reader (measurement of the number of living cells: excitation wavelength of 495 nm, fluorescence wavelength of 515 nm, measurement of the amount of neurite outgrowth: excitation wavelength of 555 nm, fluorescent wavelength of 565 nm).

Question: What does the source list for “NGF: positive control: a test medium containing a 100 ng/mL nerve growth factor (NGF) [reference compound]”?
Answer: cells showing a neurite outgrowth rate of 1 time or more [1]: 68.8%; cells showing a neurite outgrowth rate of 2 times or more [1]: 54.5%; amount of neurite outgrowth per cell as compared with the non-added section [2]: 183.1%
